The text below walks through data of ChEMBL document CHEMBL1201862, “PubChem BioAssay data set” (2004).

Usually EC50 stands for the concentration needed to bring the measured effect to its halfway point. The term CC50 denotes the concentration that lowers cell viability or growth by half. The term IC50 denotes the midpoint of a concentration-inhibition curve. One may read the AC50 as the concentration at which the activity in the assay is half-maximal.

Calls of active or inactive are those of the source.

A short description of assay [1]: cells. The assay is classed as functional, cell-based.
Assay [2] is described as follows: cells. It is filed as functional, cell-based. This is another data set of the same source.
The target of assay [3] is T1, Oxysterols receptor LXR-beta (Homo sapiens, UniProt P55055).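 Note: agonist activity at LXR measured by a cell-based luminescence readout across a dose range, run as a counterscreen for daf-12 agonists; HEK293 cells with Gal4-LXR fusion and GAL4-driven luciferase reporter; potency for activation of Gal4-LXR reporter so compounds are agonists.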
T1 sequence (P55055 whole entry): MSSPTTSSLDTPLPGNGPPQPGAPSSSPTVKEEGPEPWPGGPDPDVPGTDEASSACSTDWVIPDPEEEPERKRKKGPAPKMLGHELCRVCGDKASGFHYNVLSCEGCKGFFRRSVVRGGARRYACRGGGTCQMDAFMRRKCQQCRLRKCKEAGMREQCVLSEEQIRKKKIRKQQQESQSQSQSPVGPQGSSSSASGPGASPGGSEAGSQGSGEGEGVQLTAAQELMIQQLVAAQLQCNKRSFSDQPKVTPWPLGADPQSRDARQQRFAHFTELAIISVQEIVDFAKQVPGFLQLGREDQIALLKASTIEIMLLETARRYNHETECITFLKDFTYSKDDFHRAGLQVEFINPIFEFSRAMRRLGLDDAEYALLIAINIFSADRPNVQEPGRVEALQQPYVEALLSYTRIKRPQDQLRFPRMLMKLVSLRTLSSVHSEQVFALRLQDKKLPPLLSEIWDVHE
It is filed as functional, cell-based.

A further assay relates to Vero. The assay can be described thus: viability of Vero cells under compound – cytotoxicity control for flavivirus capping enzyme inhibitors (AID 588742). It is filed as functional. To be noted: Chlorocebus sabaeus.
A further assay concerns the target Genome polyprotein (dengue virus type 2, UniProt P29990). Description: flavivirus cap methylation enzyme inhibition – biochemical, confirmation dose response, primary screen (AID 588689). It is filed as functional.
A short description of assay [4]: HEK-293T cell viability reduction – luminescence, B-cell screen hits, cytotoxicity control for BCR NF-kB inhibitor project, dose response (AID 489021).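 Note: HEK-293T cells carrying an NF-kB luciferase reporter; cells exposed to compound for about 14 hours before viability readout.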 The assay is classed as functional, cell-based.
For assay [5], the target named is T2, Carboxy-terminal domain RNA polymerase II polypeptide A small phosphatase 1 (Homo sapiens, UniProt Q9GZU7).
T2 sequence (Q9GZU7 whole entry): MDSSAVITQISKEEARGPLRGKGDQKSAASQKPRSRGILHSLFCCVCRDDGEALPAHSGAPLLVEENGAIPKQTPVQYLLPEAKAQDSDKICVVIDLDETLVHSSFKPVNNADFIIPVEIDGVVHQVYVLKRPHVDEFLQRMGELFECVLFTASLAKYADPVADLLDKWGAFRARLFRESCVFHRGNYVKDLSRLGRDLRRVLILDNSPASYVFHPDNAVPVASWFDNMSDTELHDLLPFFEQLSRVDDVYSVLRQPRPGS
Description: CTDSP1 inhibitors, concentration-response, biochemical, absorbance readout, ultra-high-throughput screen actives (AID 540297). The assay is classed as functional.

Assay [6] deals with Heat shock protein HSP 90-alpha (Homo sapiens, UniProt P07900). The assay is classed as functional, organism-based.
A further assay concerns the target Nonstructural protein 1 (Influenza A virus, UniProt Q194T2). It is filed as functional, Influenza A virus (A/California/07/2009(H1N1)).
In assay [7] the target is Induced myeloid leukemia cell differentiation protein Mcl-1 (Homo sapiens, UniProt Q07820). The assay is classed as functional.
Assay [8] in a line: Luminescence Cell-Based Dose Retest to Confirm Inhibitors of Cancer Stem Cells. [Related pubchem assays (depositor defined):AID2717, AID2721]. It is filed as functional. To be noted: Homo sapiens.
A further assay addresses T3, CAAX prenyl protease 2 (Saccharomyces cerevisiae S288c, UniProt Q03530).
T3 sequence (Q03530 whole entry): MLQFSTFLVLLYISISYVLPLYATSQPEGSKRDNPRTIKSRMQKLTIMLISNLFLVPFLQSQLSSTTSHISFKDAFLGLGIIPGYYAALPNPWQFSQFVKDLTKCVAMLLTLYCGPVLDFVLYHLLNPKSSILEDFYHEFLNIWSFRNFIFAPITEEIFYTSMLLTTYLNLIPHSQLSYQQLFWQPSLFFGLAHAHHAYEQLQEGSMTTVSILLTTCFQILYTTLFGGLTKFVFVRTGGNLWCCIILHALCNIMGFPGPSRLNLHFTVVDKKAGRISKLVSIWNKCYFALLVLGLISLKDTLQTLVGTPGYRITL
The assay is classed as biochemical.

The nature of assay [9]: blockers of HIV-1 envelope-mediated cell-cell fusion – cherry-pick, dose response (AID 652057). The assay is classed as functional, cell-based.
Assay [10] can be described thus: viability loss in CEM21 cells – cell-based, CellTiter-Glo luminescence, cherry-picked, cytotoxicity control for viral fusion inhibitor project, dose response (AID 652042).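 Note: potency for signal decrease meaning cytotoxicity.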 It is filed as functional. For orientation: ATP-based viability assays read luminescence as a measure of living cells.
A short description of assay [11]: blockers of HIV-1 ZM109 envelope-driven cell-cell fusion – HeLa effector, CEM target cells, luciferase, cherry-pick, dose response (AID 652058).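 Note: luciferase signal from HIV-1 Env mediated cell-cell fusion of effector and target cells.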 It is filed as functional, cell-based.
Assay [12] in a line: HIV-1 AD8 envelope cell-cell fusion blockers – cherry-pick, dose response (AID 652062).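 Note: luciferase signal from cell-cell fusion driven by HIV-1 clade B AD8 Env; potency is for inhibitors of fusion seen as a drop in luminescence.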 It is filed as functional, cell-based.
Assay [13] can be described thus: cells. It is filed as functional.
For a further assay, the system named is HeLa. Description: ATP-based viability loss in HeLa cells – cell-based, CellTiter-Glo luminescence, cherry-pick samples, cytotoxicity control for MITF activator project, dose response (AID 540259). It is filed as functional. Particulars: Homo sapiens.
The test system of assay [14] is BJ. The assay can be described thus: BJ-TERT fibroblast viability loss – cell-based, RAS-independent, luminescence, dose response (AID 1933). It is filed as functional. To be noted: Homo sapiens.
Assay [15] relates to BJ. Description: cells. The assay is classed as functional, cell-based. Particulars: Homo sapiens.
Assay [16] relates to BJ. The assay can be described thus: BJ-TERT-LT-ST fibroblast viability loss – cell-based, RAS-independent, luminescence, dose response (AID 1935).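 Note: BJ fibroblasts immortalized with TERT plus LT and ST oncogenes.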 It is filed as functional. Particulars: Homo sapiens.
Assay [17] is described as follows: DRD fibroblast viability loss – cell-based, non-viral oncogenic, luminescence, dose response (AID 1934). The assay is classed as functional. Particulars: Homo sapiens.
The target in assay [18] is Glyceraldehyde-3-phosphate dehydrogenase (Homo sapiens, UniProt P04406).
The next assay relates to H4. The assay can be described thus: Luminescence Cell-Based Dose Response HTS to Identify Activators of 5'UTR Stem-Loop Driven Prion Protein mRNA Translation in H4 Neuroglioblastoma Cells. [Related pubchem assays: 1829 (Project Summary), 1814 (Primary HTS)]. It is filed as functional. Particulars: Homo sapiens.
The nature of assay [19]: Trypanosoma cruzi growth suppression in host cells – NIH3T3 host cells, beta-gal luminescence, confirmation (AID 2044).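 Note: intracellular parasites grown in NIH/3T3 mouse fibroblasts as host cells; luminescent beta-galactosidase reporter signal from transgenic T. cruzi replicating inside host cells; inhibitors lower the luminescence signal.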 The assay is classed as functional, cell-based.
A short description of assay [20]: viability of uninfected HEp-2 cells – cell-based, HTS, cytotoxicity control for RSV inhibitor project, dose response (AID 2410). To be noted: human respiratory syncytial virus. The assay is classed as functional.
The target of the next assay is T4, Protein skinhead-1 (Caenorhabditis elegans, UniProt P34707).
T4 sequence (P34707 whole entry): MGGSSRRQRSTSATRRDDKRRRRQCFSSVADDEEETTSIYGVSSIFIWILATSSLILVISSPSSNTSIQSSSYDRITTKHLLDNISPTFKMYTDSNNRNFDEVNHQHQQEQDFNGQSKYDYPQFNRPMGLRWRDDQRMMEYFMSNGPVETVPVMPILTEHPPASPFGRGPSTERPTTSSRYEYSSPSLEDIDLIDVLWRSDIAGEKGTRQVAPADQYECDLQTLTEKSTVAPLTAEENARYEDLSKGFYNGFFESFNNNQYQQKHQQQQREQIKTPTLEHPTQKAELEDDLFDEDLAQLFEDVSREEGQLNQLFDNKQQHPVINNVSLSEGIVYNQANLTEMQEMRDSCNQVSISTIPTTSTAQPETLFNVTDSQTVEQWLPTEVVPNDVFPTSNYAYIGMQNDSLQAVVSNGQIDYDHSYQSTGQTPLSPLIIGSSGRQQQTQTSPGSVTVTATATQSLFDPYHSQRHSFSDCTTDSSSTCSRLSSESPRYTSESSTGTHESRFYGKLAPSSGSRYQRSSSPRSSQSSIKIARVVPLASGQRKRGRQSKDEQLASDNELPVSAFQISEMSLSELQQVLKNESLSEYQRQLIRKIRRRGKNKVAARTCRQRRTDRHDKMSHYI
The assay is classed as functional.

Sequence of Nonstructural protein 1 (Q194T2 whole entry): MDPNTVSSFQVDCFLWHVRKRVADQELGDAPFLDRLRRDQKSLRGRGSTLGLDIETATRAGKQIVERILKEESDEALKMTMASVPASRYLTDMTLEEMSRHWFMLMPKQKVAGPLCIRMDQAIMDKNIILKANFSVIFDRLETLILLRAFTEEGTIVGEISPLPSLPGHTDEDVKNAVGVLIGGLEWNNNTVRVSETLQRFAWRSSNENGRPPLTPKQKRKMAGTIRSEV
Sequence of Induced myeloid leukemia cell differentiation protein Mcl-1 (Q07820 whole entry): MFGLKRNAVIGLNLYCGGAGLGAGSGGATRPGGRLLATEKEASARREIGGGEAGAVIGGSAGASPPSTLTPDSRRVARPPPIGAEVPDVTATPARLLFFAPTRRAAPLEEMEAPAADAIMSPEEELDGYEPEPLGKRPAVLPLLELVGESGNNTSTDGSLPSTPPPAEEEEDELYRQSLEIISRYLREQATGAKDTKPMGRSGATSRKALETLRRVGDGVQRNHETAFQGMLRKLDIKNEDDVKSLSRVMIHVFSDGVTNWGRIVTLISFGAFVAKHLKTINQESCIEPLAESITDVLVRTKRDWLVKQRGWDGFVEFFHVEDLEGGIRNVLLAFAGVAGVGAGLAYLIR
Sequence of Glyceraldehyde-3-phosphate dehydrogenase (P04406 whole entry): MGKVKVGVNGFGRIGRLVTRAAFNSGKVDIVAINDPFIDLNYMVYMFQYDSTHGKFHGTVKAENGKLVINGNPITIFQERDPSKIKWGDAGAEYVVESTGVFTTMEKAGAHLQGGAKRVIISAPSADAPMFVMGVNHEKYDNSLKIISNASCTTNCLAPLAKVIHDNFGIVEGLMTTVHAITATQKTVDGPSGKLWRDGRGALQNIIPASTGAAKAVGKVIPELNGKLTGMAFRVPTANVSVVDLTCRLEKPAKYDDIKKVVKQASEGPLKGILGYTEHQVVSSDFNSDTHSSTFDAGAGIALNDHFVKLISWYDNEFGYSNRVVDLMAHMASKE
Sequence of Genome polyprotein (P29990 2492-3391 limits assumed): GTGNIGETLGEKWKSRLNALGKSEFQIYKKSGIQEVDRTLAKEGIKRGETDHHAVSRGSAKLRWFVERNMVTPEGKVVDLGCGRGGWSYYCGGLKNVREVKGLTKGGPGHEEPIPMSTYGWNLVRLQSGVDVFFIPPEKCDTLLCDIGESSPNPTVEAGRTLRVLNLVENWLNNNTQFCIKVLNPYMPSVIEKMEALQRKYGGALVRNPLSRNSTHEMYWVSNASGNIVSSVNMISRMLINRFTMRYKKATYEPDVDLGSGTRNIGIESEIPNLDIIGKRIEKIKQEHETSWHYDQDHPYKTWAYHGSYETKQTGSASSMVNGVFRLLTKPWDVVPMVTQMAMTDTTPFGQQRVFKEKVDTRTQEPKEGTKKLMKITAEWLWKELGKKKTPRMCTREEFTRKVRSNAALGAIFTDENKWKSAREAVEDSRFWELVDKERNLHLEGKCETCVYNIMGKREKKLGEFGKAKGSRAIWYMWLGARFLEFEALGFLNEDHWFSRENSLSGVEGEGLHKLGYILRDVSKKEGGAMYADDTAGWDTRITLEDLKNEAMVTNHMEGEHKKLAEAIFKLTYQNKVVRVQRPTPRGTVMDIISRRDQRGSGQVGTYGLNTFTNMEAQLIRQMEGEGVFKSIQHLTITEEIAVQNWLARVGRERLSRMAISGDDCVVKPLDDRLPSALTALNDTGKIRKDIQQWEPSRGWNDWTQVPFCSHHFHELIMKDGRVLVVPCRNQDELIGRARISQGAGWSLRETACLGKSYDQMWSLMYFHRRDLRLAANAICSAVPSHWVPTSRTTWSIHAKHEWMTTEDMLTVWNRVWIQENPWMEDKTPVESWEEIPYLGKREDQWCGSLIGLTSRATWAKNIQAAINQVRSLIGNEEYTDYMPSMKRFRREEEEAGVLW

For `O=C(C1=NN[C@@H]2C(=O)N(c3cccc(C(F)(F)F)c3)C(=O)[C@H]12)C(c1ccccc1)c1ccccc1`, the EC50 in the assay “cells [1]” and in the assay “cells [2]” was > 350 µM (not active) in each case.
With `Cc1ccc(CSc2nnc(CCCCCNC(=O)OC(C)(C)C)o2)cc1`, the EC50 in “cells [1]” and in “cells [2]” was > 350 µM (not active) throughout.
`CN(C)c1ccc(N=Nc2nccs2)cc1`: the EC50 in assay [3] is > 67.4 µM (inactive).
On to `COc1ccc(-c2cc(C(F)(F)F)c3c(=O)n(-c4ccccc4)[nH]c3n2)cc1`, for which the CC50 in the assay with Vero is > 40 µM (active). For the same compound, the IC50 at Genome polyprotein was 44.2 µM (active).
On to `CCOc1ccc(/C=C2\SC(=S)N(CCC(=O)Nc3ccc(C(=O)O)cc3)C2=O)cc1`, for which the IC50 is > 80 µM (inactive) in assay [4] and 1.88 µM (active) in assay [5].
Turning to `C#CCN(Cc1ccccc1)S(=O)(=O)C=C`, in assay [4], the IC50 is > 80 µM (inactive).
For the compound `Cc1ccc(-n2ncc3c2CCCC3NC(=O)c2ccccc2N2CCOCC2)cc1C` (stereo not drawn), in assay [6], the AC50 is 0.984 µM (active).
Consider `OC(c1ccccn1)(c1ccccn1)c1ccccn1`, for which the IC50 on Nonstructural protein 1 is 10.9 µM (active).
As for `COCCN1Cc2cccc(C(=O)Nc3cccc(C)c3C)c2C1=O`, the IC50 in assay [7] is 6.79 µM (not active).
Regarding `CC(C)N1CCN(Cc2ccc(OCc3ccccc3)cc2)CC1CCO` (stereo not drawn), the AC50 in assay [8] is 3.36 µM (active); at CAAX prenyl protease 2, 72.9 µM (active).
With `Cc1ccc(-n2ncc3ccccc3c2=O)cc1Cl`, the EC50 in assay [3] is > 67.6 µM (inactive).
With `O=C(C[C@H]1CC[C@@H](NC(=O)c2ccccc2)[C@H](CO)O1)NCc1ccc(Oc2ccccc2)cc1`, the concentration at half-maximal activity (AC50) in assay [9] was 3.8 µM (active); in assay [10] it was 62.1 µM (active); in [11] it was 0.349 µM (active); in assay [12], 4.3 µM (active).
On to `Nc1nnc(Sc2ncccc2[N+](=O)[O-])s1`, for which, in the assay “cells [13]”, the IC50 was 15.3 µM (active).
As for `O=C(/C=C/c1ccccc1)NCCc1nc2ccccc2[nH]1`, the EC50 in the assay “cells [1]” and in the assay “cells [2]” was > 350 µM (not active) throughout.
For `Nc1ccc(C2=Nc3cccc4cccc(c34)N2)cc1`, the IC50 in assay [7] is 2.86 µM (active).
`Cc1ccc(N=Nc2ccc(O)cc2)c(Br)c1`: the AC50 was 6.26 µM (active) in [8], 7.83 µM (active) in assay [6] and 39.2 µM (active) in the assay on HeLa. Also, the EC50 in assay [3] is > 67.5 µM (inactive).
Consider `COc1ccc(/C=N/n2cnc3c4cc(F)ccc4nc-3c2O)cc1CN1CCCC1`, for which the concentration giving a half-maximal response (EC50) was 5.03 µM (inconclusive) with BJ [14], 9.17 µM (inconclusive) with BJ [15], 4.92 µM (active) in the assay with BJ [16] and 5.47 µM (inconclusive) in assay [17].
As for `COc1cccc(NC(=O)c2cnc(SC)nc2)c1`, in “cells [13]”, the IC50 is 15.3 µM (active).
In the case of `Cc1ccc(SCC(=O)Nc2nnc[nH]2)cc1`, the IC50 in assay [18] was > 10 µM (inconclusive).
`Cc1ccc(S(=O)(=O)N2CCOCC2)cc1NC(=O)CNCc1ccccn1`: the IC50 at Nonstructural protein 1 was 18 µM (active).
Regarding `Cc1cc(N/C=C/C(=O)c2ccc(Br)cc2)no1`, the EC50 was > 350 µM (not active) in the assay “cells [1]” and 59.3 µM (active) in the assay “cells [2]”.
In the case of `CCn1c(=O)c2cc(C(=O)NC(C)C)sc2c2ccccc21`, the IC50 in assay [4] was 27.6 µM (inactive).
As to `CC(C)C#Cc1ccc2c(c1)O[C@@H](CN(C)C(=O)C1CCCCC1)[C@H](C)CN([C@H](C)CO)S2(=O)=O`, the AC50 in [9] was 21.2 µM (active); in assay [10], 21.3 µM (active).
`Cc1ccccc1N=C(S)N(CCN(C)C)C(C)c1ccccn1` (stereo not drawn): the IC50 at Nonstructural protein 1 was 64.5 µM (active).
Turning to `O=C(CCCc1ccccc1)NC12CC3CC(CC(C3)C1)C2`, the EC50 with H4 is > 120 µM (not active); in assay [3], > 67.5 µM (inactive).
In the case of `CN1CCN(C(=O)c2ccc(-c3cccs3)s2)CC1`, the AC50 on CAAX prenyl protease 2 was 32.5 µM (active).
With `CC(C)N1C(=O)/C(=C\c2nc3ccccc3c(=O)n2-c2ccccc2)c2ccccc21`, in [19], the EC50 was 1.36 µM (active). Also, the AC50 in [8] is 8.71 µM (active). For the same compound, on Nonstructural protein 1, the IC50 was 50.5 µM (active).
Consider `Cc1ccc(-c2cc(C(F)F)n3ncc(C(=O)N4CCN(c5cccc(C)c5C)CC4)c3n2)cc1`, for which the CC50 in [20] is 10.2 µM (active). Also, the IC50 on Protein skinhead-1 was > 100 µM (inactive).
Consider `CCOc1cc2nc(-c3ccc(OC)c(OC)c3)nc(N3CCOCC3)c2cc1OC`, for which the IC50 in assay [4] was > 80 µM (inactive).
As for `CO[C@@H](CN(C)S(=O)(=O)c1ccc(Cl)cc1)[C@H](C)CN([C@@H](C)CO)S(=O)(=O)c1cccc(Cl)c1`, the half-maximal activity concentration (AC50) in assay [9] is 20 µM (active); in assay [11], 19.1 µM (active); in [12], 8.73 µM (active).
